As usually defined, the IC50 is the concentration that gives 50% inhibition. A low value points to higher potency.

Test [1] addresses E3 ubiquitin-protein ligase CBL-B (Homo sapiens, UniProt Q13191). As to the kind of experiment: Inhibition of CBL-B (unknown origin).
The nature of test [2]: Inhibition of C-CBL (unknown origin). Also noted: species or system Homo sapiens.
The species entered for test [3] is Homo sapiens. The experiment in a line: Selectivity ratio of IC50 for c-CBL (unknown origin) to IC50 for CBL-B (unknown origin).

SMILES strings stand for the structures.

Chain of E3 ubiquitin-protein ligase CBL-B (Q13191 whole entry): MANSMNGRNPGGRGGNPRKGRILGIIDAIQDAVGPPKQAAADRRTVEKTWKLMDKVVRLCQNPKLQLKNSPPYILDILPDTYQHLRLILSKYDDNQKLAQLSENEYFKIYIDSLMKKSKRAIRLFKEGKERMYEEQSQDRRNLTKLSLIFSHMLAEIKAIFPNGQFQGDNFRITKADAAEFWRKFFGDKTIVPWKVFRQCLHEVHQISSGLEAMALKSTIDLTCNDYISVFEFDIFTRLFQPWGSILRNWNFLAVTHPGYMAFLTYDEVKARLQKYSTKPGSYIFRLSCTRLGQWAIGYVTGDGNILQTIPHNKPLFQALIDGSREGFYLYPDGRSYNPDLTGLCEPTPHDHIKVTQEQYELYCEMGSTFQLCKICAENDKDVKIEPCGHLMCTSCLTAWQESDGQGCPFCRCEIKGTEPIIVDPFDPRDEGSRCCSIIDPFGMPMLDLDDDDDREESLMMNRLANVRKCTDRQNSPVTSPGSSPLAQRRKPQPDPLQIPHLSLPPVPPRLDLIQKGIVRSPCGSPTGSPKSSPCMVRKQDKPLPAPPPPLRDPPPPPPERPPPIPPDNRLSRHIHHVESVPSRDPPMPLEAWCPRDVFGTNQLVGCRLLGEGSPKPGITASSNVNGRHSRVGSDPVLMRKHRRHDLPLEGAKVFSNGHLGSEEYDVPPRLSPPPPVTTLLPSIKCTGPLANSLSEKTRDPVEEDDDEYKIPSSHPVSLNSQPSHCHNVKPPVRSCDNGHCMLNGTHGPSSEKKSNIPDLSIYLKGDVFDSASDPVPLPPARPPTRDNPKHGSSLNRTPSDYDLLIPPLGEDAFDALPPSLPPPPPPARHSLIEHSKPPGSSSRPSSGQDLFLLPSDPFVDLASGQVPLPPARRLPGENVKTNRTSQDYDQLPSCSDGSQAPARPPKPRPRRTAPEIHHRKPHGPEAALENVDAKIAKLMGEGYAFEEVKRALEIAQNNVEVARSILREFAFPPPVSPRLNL

Take `Cn1cnnc1CC1(c2cccc(N3CC4=C(C(F)(F)F)C=C(CN5CCC(C)(F)CC5)CN4C3=O)c2)COC1`: the values for the IC50 in test [1] and in test [2] were about 6 nM and about 60 nM, respectively. Also, the Ratio IC50 in test [3] worked out at 10.

Take `Cn1cnnc1C1(c2cccc(N3Cc4c(cc(CNC5(C)CCC5)cc4C(F)(F)F)C3=O)c2)CC2(CC(F)(F)C2)C1`: the IC50 in test [1] is about 21 nM; in test [2] it was about 120 nM. Moreover, the Ratio IC50 in test [3] stood at 6.

Turning to `Cn1cnnc1[C@H](c1cccc(N2Cc3c(Cl)cc(CNC4(C)CCC4)cc3C2=O)c1)[C@H]1C[C@@H](F)C1`, the IC50 is about 170 nM in test [1] and about 1100 nM in test [2]. Also, the Ratio IC50 in test [3] was determined as 6.5.

Compound `CC1CC(c2cccc(-c3nc4c(C(F)(F)F)cc(CN5CCC[C@H](C)C5)cc4[nH]3)c2)(c2nncn2C)C1` (some centres not stated) yielded an IC50 in test [2] of about 10000 nM. Further, the Ratio IC50 in test [3] came to 50.

In the case of `CC1CC(c2cccc(N3Cc4c(cc(CN5CCC[C@H](C)C5)cc4C(F)(F)F)C3=O)c2)(c2nncn2C)C1` (some centres not stated), the half-maximal inhibitory concentration (IC50) was about 5 nM in test [1] and about 20 nM in test [2]. The Ratio IC50 in test [3] came out at 4.

For the compound `COCCNCc1cc(C(F)(F)F)c2oc(-c3cccc(-c4ccc(F)cc4-c4nncn4C)c3)nc2c1`, the IC50 in test [1] is about 200 nM; in test [2], about 10000 nM. Also, the Ratio IC50 in test [3] worked out at 50.

Consider `CO[C@H]1C[C@@](c2cccc(N3Cc4c(cc(CNC5(C)CCC5)cc4C(F)F)C3=O)c2)(c2nncn2C)C1`, for which the half-inhibitory concentration (IC50) was about 25 nM in test [1] and about 150 nM in test [2]. The Ratio IC50 in test [3] turned out to be 6.

On to `CC1CC(c2cccc(N3C(=O)c4cc(CNC5(C)CCC5)cc5c(F)ccc3c45)c2)(c2nncn2C)C1` (configuration not stated), for which the IC50 is about 16.5 nM in test [1] and about 165 nM in test [2]. Further, the Ratio IC50 in test [3] was determined as 10.

On to `CC1CC(c2cccc(-c3nc4cc(CN5CCC[C@H](C)C5)cc(C(F)(F)F)c4[nH]3)c2)(c2nncn2C)C1` (some centres not stated), for which the IC50 in test [1] was about 200 nM.

Consider `C[C@H](c1cc(C(F)(F)F)c2nc(-c3cccc(CC4(c5nncn5C)COC4)c3)[nH]c2c1)N1CCC2(CC2)C1`, for which the IC50 in test [1] is about 200 nM; in test [2] it was about 10000 nM. Further, in test [3], the Ratio IC50 was 50.

For the origin of these results see ChEMBL document CHEMBL5584278, “Deciphering the Selectivity of CBL-B Inhibitors Using All-Atom Molecular Dynamics and Machine Learning” (ACS Med Chem Lett, 2024).
